The source of these data is PMC5920098, “Identification of the allosteric P2X7 receptor antagonist [^11C]SMW139 as a PET tracer of microglial activation” (Scientific Reports, 2018).

One test has as its target T1, hP2X7R (Homo sapiens, UniProt Q99572).
T1 construct: 3xFLAG (3flag); expressed in transfected cells; host or cells: rat striatum (female Wistar rats), transduced in vivo with the AAV vector rAAV_3flag-hP2X7R
T1 sequence (Q99572 1-595): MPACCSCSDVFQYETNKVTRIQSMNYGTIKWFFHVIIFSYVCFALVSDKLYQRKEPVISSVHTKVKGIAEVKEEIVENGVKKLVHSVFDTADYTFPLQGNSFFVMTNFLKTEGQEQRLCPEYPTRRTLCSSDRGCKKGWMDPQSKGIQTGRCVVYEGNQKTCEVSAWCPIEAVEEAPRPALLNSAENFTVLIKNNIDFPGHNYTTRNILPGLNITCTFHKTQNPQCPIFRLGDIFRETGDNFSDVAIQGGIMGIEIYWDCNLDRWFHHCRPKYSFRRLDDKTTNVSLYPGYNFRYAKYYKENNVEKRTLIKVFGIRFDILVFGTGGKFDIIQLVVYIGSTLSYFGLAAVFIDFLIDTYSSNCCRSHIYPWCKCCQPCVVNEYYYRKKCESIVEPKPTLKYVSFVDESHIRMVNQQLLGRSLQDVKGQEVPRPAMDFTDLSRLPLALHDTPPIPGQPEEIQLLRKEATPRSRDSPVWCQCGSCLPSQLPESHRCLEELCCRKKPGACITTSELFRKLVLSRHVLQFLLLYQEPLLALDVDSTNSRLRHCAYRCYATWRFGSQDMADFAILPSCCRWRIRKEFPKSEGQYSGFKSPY
Put plainly: PET imaging in rats locally overexpressing hP2X7R in right striatum. The following applies: 30 mg·kg^−1 s.c., 45 min prior to tracer injection. The class given is in vivo, rat. The protocol:
Uptake of [^11C]SMW139 was 1.5-fold higher in the right striatum compared with the contralateral striatum at 4–15 min p.i. (n = 3; Fig. 6A,B, and Supplementary Figure S5, 5 weeks after vector injection). […] (2.85 ± 0.69 vs. 2.30 ± 0.36 in contralateral striatum) throughout the remainder of the scanning time.
Female rats were injected with the hP2X7R expressing vector in the right striatum, and eGFP expressing vector in the left striatum, which is described in detail in the Supplementary Information. […] To confirm stable expression of hP2X7R during the time period in which PET scanning studies were conducted, autoradiography experiments were performed both prior to and following PET experiments. In a dedicated small animal PET scanner (nanoPET, Mediso Ltd.), 60 min dynamic PET scans were acquired immediately after intravenous administration of 16–20 MBq of [^11C]SMW139. […] 45 min prior to tracer injection. After data reconstruction (details in Supplementary Information), images were analysed using the freely available AMIDE software (version 0.9.2; http://amide.sourceforge.net). ROIs were drawn around ipsi- and contralateral striata. Results are expressed as standardised uptake values (SUVs) and error bars indicate standard deviation.
Stereotactic injection of viral vector […]
to a 10 µL Hamilton syringe. […]
dorsoventral -0.64 cm relative to bregma. […]
minutes before removing it slowly.
Rats were sacrificed for in
Dynamic PET imaging was performed using dedicated small animal NanoPET/CT and NanoPET/MR scanners (Mediso Ltd., Budapest, Hungary) which are equipped with identical PET components. […]
anaesthetised with 4% and 2% isoflurane in oxygen (1 L·min-1) for induction and maintenance, respectively. Rats were positioned on the scanner bed and their respiratory rate was monitored during the entire scan, and anaesthesia was adjusted whenever required. Dynamic PET scans were acquired immediately after intravenous (i.v.) administration of 16-20 MBq of [11C]SMW139 via the tail vein. For […]
hydroxypropyl)-β-cyclodextrin in water for injection 45 min prior to tracer injection. PET scans were acquired in list mode and rebinned into the following frame sequence: 4 × 5, 4 x 10, 2 x 30, 3x 60, 2 x 300, 1 x 600, 1 x 900 and 1 x 1200 s. Reconstruction was performed using a fully 3-dimensional reconstruction algorithm (Tera-TomoTM, Mediso Ltd.) with 4 iterations and 6 subsets, and an isotropic 0.4 mm voxel dimension. Images were analysed using the freely available AMIDE software (version 0.9.2; http://amide.sourceforge.net). 3D ellipsoid ROIs (dimensions x = 3.4 mm, y = 3.6 mm, z = 2.9 […]
mm) were drawn within ipsi- and contralateral striata. Results are expressed as standardised uptake values (SUVs) and error bars indicate standard deviation. SUV were calculated as follows, with cimg in MBq/mL, injected dose in MBq and bodyweight in kg:
An unpaired two-tailed t-test was used for statistical analysis of PET data, which was performed using […]
allowed to recover for 1 week after scanning. After 1 week of recovery following the final scan (12 weeks after stereotactic vector injection) animals were sacrificed, and brains were excised and stored […]
Extended single microdose toxicity study
A single microdose toxicity study according to EMEA guideline EMA/CPMP/ICH/286/1995 (December 2009) was performed in healthy Wistar rats at a 1000 times higher dose than the maximal dose […]
minimum specific activity of 18.5 GBq·µmol-1). Animals were allowed to acclimatise for 10 days, group-housed and in an enriched environment with food and water available ad libitum, and with a 12-hour light-dark cycle in a temperature controlled room.

The target of a further test is T2, P2X7R (Homo sapiens, UniProt Q99572).
T2 construct: Snap frozen human post-mortem; tissue The Netherlands Brain Bank; host or cells: post mortem human temporal cortex (AD patients and non-neurological controls)
T2 sequence (Q99572 1-595): T1 sequence (Q99572 1-595)
Put plainly: In vitro autoradiography on post mortem human brain tissue (AD patients and controls). The following applies: blocker 10 µM, AD patients and controls. The format is binding.

The target of the next test is human P2X7R. The arrangement: method as in PMID 28841278. The following applies: cited from earlier work.

Entries after “also recorded” stand apart in the source; their conditions may differ.

A word on the Ki: it is a measure of affinity in units of concentration, obtained from inhibition or displacement.

For the compound `O=C(NCC1(N2CCN(c3ccccc3)CC2)CCOCC1)c1cccnc1Sc1ccccc1` [JNJ-47965567, reference compound], the “Effect of pre-treatment on [^11C]SMW139 uptake/binding in rAAV_3flag-hP2X7R striatum” value on hP2X7R is listed as “down to baseline levels; also recorded: significantly decreased”. At P2X7R, the “Blocking of [^11C]SMW139 binding in post mortem human brain tissue” value is “fully blocked; also recorded: virtually complete blocking”.
Take `COc1ccc(Cl)c(C(=O)NCC23CC4CC(CC(C4)C2)C3)c1` [compound 1]: the Ki at human P2X7R is 9 nM.
Consider `COc1ccc(Cl)c(C(=O)NCC23CC4CC(CC(F)(C4)C2)C3)c1` [compound 2], for which the Ki at human P2X7R was 22 nM.
Turning to `COc1ccc(Cl)c(C(=O)NCC23CC4CC(F)(CC(F)(C4)C2)C3)c1` [compound 3], the Ki on human P2X7R is 23 nM.
